No end group written: not given here.
Tests used:
fasted diabetic rats = experiment: Blood glucose level in fasted diabetic rats after oral administration; type: in vivo, rat; conditions: 10 U/kg oral, water/oil microemulsion, in 9 hours (FIG. 6)
Experimental: The blood glucose level of rats was increased one week after inducing diabetes from an average of 100 mg/dl to 420 mg/dl (non-fasted rats). […] This is possibly due to the time required for REAL-insulin to be hydrolyzed and to release free insulin. After injection of insulin the fast blood glucose level of rats was back to original within 24 h. However, in the case of the rats treated with REAL-insulin, the drug effect on the fast blood glucose level lasted for 3 days (FIG. 5). Fasted diabetic rats were also administered by oral means 10 U/kg of insulin, REAL-insulin and placebo. Rats were fasted 16 h prior to oral administration. A water/oil microemulsion was used as the drug carrier.

[1] = tested on: hyperglycemic (diabetic) Sprague Dawley rats; experiment: Blood glucose level in streptozotocin-induced diabetic rats after subcutaneous injection; type: in vivo, rat
Experimental: Diabetes was induced in Sprague Dawley rats using i.v. injection of 60 mg/kg, streptozotocin. Solutions of 0.5 Unit/ml insulin or REAL-insulin in borate buffer (pH 10, 0.1M) were prepared. Rats were fasted 16 h prior to the experiment and were injected subcutaneously 0.5 Unit/kg of insulin or REAL-insulin. The blood glucose level of rats was monitored at different time points for 9 h. After this time rats were fed and the blood glucose level was measured after 15 h of feeding. The rats were again fasted and blood glucose level was measured after 16 h. The period of fasting and feeding was continued for 3 days.

[2] = tested on: vasopressin deficient Brattleboro rats; experiment: In vivo effect on urine output in vasopressin deficient Brattleboro rats; design: species or system rat; conditions: 5 μg/kg subcutaneous; for time after injection at which urine excretion was back to original: Brattleboro rats (FIG. 3); for delay in urine excretion: first 8 h (FIG. 2)
Experimental: REAL-AVP was injected subcutaneously in animals (5 μg/kg) and urine was collected at different time points. […] AVP and Pal-AVP have similar effects with a delay in urine excretion of 4 h. A longer delay in urine excretion, up to 6 h, was observed after injection of REAL-AVP. […] The amount of urine excretion was back to original 24 h after injection of Pal-AVP and AVP. However, the effect of REAL-AVP lasted for 3 days (FIG. 3).

Compound | reduction of the blood glucose level (fasted diabetic rats) | time for fast blood glucose level to be back to original ([1]; 0.5 U/kg subcutaneous, diabetic rats (FIG. 5)) [h] | change in blood glucose level within the first hour ([1]; subcutaneous, fasted diabetic rats (FIG. 4)) | time after injection at which urine excretion was back to original [2] [h] | delay in urine excretion ([2]; Brattleboro rats) [h] | effectiveness compared with REAL-AVP ([2]; Brattleboro rats)
insulin | no significant reduction | ≤ 24 | significant drop |  |  | 
NC(=O)CC[C@@H]1NC(=O)[C@H](Cc2ccccc2)NC(=O)[C@H](Cc2ccc(O)cc2)NC(=O)[C@@H](N)CSSC[C@@H](C(=O)N2CCC[C@H]2C(=O)N[C@@H](CCCN=C(N)N)C(=O)NCC(N)=O)NC(=O)[C@H](CC(N)=O)NC1=O [AVP, Arginine vasopressin] |  |  |  | 24 | 4 | 
Pal-AVP: Direct lipidization of AVP to palmitic acid (CYFQNCPRG; ends and bridges not checked; also: palmitoylated, position not given here; UniProt P01185 20-28, looked up) |  |  |  | 24 | 4 | not as effective as REAL-AVP

Reference: patent US6590071B1, “Reversible aqueous pH sensitive lipidizing reagents, compositions and methods of use” (University of Southern California, priority 1998, dated 2003)
